Data from US20250127734A1, “ALZ-801 FOR USE IN TREATING A COVID-19 ASSOCIATED NEUROLOGICAL SYMPTOM” (Alzheon, Inc., priority 2022, published 2025).
“And” between values parts separate entries of the source, which are not always exact repeats. Identical values can stand only once.

Assays:
plasma p-tau181 = assay: Phase 2 trial in early AD APOE4 carriers: plasma p-tau181 (Simoa); assay type: in vivo, human; conditions: 265 mg BID oral, APOE4/4 or APOE3/4, change from baseline
Experimental: (§1) Evaluation of disease modifying effects from phase 2 trial of ALZ-801 (valiltramiprosate) in subjects with early Alzheimer's disease were conducted. The study enrolled 84 patients, with early AD, who carry the APOE4/4 or APOE3/4 genotype and have an MMSE score ranging from 22 to 30 (CDR-G 0.5 or 1). Each patient received 265 mg ALZ-801 twice daily. The average MMSE score of the subjects was 26 (mean age 69 years, 52% female). Subjects were either amyloid PET positive or A+/T+ on CSF assays. CSF criteria were: Ratio of Aβ42/40×10≤0.61, and p-tau181≥61 pg/ml. CSF was evaluated at 52 weeks, and plasma biomarkers at every visit.
(§2) All fluid biomarker analyses were performed at the Neurochemistry Laboratory of Dr. Blennow (Molndal, Sweden), and were blinded to subject's demographics or genotype. CSF biomarker assays were analyzed using Lumipulse (Fujirebio) and plasma assays utilized Simoa assays. Cognitive tests include the Rey Auditory Verbal Learning Test (RAVLT: immediate, delayed and recognition memory) and Digit Symbol Substitution Tests (DSST), and a composite Z-score is calculated (3-item RAVLT+DSST). Change from baseline (CBL) analyses were performed on the mITT population and included all observed data, using paired t-tests and 2-sided p-values. The primary biomarker outcome was p-tau181.
(§3) Of the 84 APOE4 carrier that were enrolled and received ALZ-801, 80 and 75 subjects completed 26 and 52 weeks respectively. […] This is much greater than the annualized ˜12% reduction in plasma p-tauisi observed in the recent human clinical trials of the anti-amyloid antibody lecanemab (van Dyck, C H et al., N Engl J Med 2023; 388: 9-21, DOI: 10.1056/NEJMoa2212948).

[1] = system: plasma p-tau181/Abeta42 ratio; assay: Phase 2 trial in early AD APOE4 carriers: plasma p-tau181/Abeta42 ratio; assay type: in vivo, human; conditions: 265 mg BID oral
Experimental: as §1, §2, §3

plasma Abeta40 = assay: Phase 2 trial in early AD APOE4 carriers: plasma Abeta40; assay type: in vivo, human; conditions: 52 weeks; 265 mg BID oral; p=0.002
Experimental: as §1
as §2, with “p-tau181. […]” for “p-tau181.”

plasma Abeta42 = assay: Phase 2 trial in early AD APOE4 carriers: plasma Abeta42; assay type: in vivo, human; conditions: 52 weeks; 265 mg BID oral; p=0.005
Experimental: as §1
as §2, with “p-tau181. […]” for “p-tau181.”

[2] = Phase 2 trial in early AD APOE4 carriers: brain volumes (hippocampal, ventricular; MRI) vs matched ADNI cohort; assay type: in vivo, human
Experimental: as §1
Unlike anti-amyloid antibodies, such as Lecanemab, ALZ-801 treatment over 52 weeks also appeared to show an ˜15% reduction in ventricular volume expansion as measured by MRI (p=0.08).

[3] = cited from earlier work

For `CC(C)[C@H](N)C(=O)NCCCS(=O)(=O)O` [ALZ-801, valyl-3-amino-1-propanesulfonic acid], which “reduction in plasma p-tau181” value (plasma p-tau181; 13 weeks, p=0.014) is on record?
Its value is 18%.

And the “reduction in plasma p-tau181” value (plasma p-tau181; 26 weeks, p=0.014)?
Its value is 29%.

And the “reduction in plasma p-tau181” value (plasma p-tau181; 52 weeks, p=0.016)?
The value was 41%.

And the “reduction in plasma p-tau181/Abeta42 ratio” value ([1]; 13 weeks, p=0.011)?
Its value is 21%.

What about the “reduction in plasma p-tau181/Abeta42 ratio” value ([1]; 26 weeks, p=0.011) of the same molecule?
The value was 30%.

What about the “reduction in plasma p-tau181/Abeta42 ratio” value ([1]; 52 weeks, p=0.032) of the same molecule?
Its value is 37% and 31%.

And the “reduction in plasma Abeta40” value (plasma Abeta40)?
The value was 5%.

What about the “reduction in plasma Abeta42” value (plasma Abeta42) of the same molecule?
Its value is 5%.

And the “annualized reduction in atrophy of hippocampal volume” value ([2]; compared to a well-matched ADNI cohort, p=0.05)?
The value was about 20%.

And the “reduction in ventricular volume expansion” value ([2]; over 52 weeks, measured by MRI, p=0.08)?
Its value is about 15%.

B1: lecanemab: anti-amyloid antibody (antibody, chains of the INN, looked up, V domains shown)
VH: EVQLVESGGGLVQPGGSLRLSCSASGFTFSSFGMHWVRQAPGKGLEWVAYISSGSSTIYYGDTVKGRFTISRDNAKNSLFLQMSSLRAEDTAVYYCAREGGYYYGRSYYTMDYWGQGTTVTVSS
VL: DVVMTQSPLSLPVTPGAPASISCRSSQSIVHSNGNTYLEWYLQKPGQSPKLLIYKVSNRFSGVPDRFSGSGSGTDFTLRISRVEAEDVGIYYCFQGSHVPPTFGPGTKLEIK
With B1 as the molecule, how does the “annualized reduction in hippocampal volume atrophy, result in words” value ([3]; Van Dyck, 2022) read?
The value was “did not demonstrate any significant annualized reduction”.

What about the “annualized reduction in plasma p-tau181” value ([3]; recent human clinical trials of lecanemab, van Dyck et al. N Engl J Med 2023) of the same molecule?
The value was about 12%.
